Results published in PubChem BioAssay (NCI).
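The compound was tested at five concentrations on cells cultured in 96-well plates, with a 48-hour exposure period. GI50: concentration for 50% inhibition of growth. TGI: concentration producing complete growth inhibition.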

Legend:
Experiment in all cases: NCI tumour cell line growth inhibition, 48 h
MALME-3M melanoma = system: MALME-3M melanoma
NCI-H226 lung = system: NCI-H226 lung
PC-3 prostate = system: PC-3 prostate
SK-MEL-5 melanoma = system: SK-MEL-5 melanoma
NCI-H522 lung = system: NCI-H522 lung
OVCAR-4 ovarian = system: OVCAR-4 ovarian
TK-10 renal = system: TK-10 renal
SK-OV-3 ovarian = system: SK-OV-3 ovarian
SNB-75 CNS = system: SNB-75 CNS
HCT-116 colon = system: HCT-116 colon
NCI-H460 lung = system: NCI-H460 lung
SK-MEL-2 melanoma = system: SK-MEL-2 melanoma
BT-549 breast = system: BT-549 breast
OVCAR-5 ovarian = system: OVCAR-5 ovarian
SF-539 CNS = system: SF-539 CNS
M14 melanoma = system: M14 melanoma
SN12C renal = system: SN12C renal
A498 renal = system: A498 renal
MDA-MB-435 = system: MDA-MB-435
NCI/ADR-RES ovarian = system: NCI/ADR-RES ovarian
HOP-92 NSCLC = system: HOP-92 NSCLC
IGROV1 ovarian = system: IGROV1 ovarian
SF-268 CNS = system: SF-268 CNS
LOX IMVI melanoma = system: LOX IMVI melanoma
COLO 205 colon = system: COLO 205 colon
SR leukemia = system: SR leukemia
U251 CNS = system: U251 CNS
HOP-62 NSCLC = system: HOP-62 NSCLC
HS 578T breast = system: HS 578T breast
K-562 leukemia = system: K-562 leukemia
ACHN renal = system: ACHN renal
SF-295 CNS = system: SF-295 CNS
OVCAR-8 ovarian = system: OVCAR-8 ovarian
OVCAR-3 ovarian = system: OVCAR-3 ovarian
SNB-19 CNS = system: SNB-19 CNS
SW-620 colon = system: SW-620 colon
RXF 393 renal = system: RXF 393 renal
UACC-257 melanoma = system: UACC-257 melanoma
HCC-2998 colon = system: HCC-2998 colon
DU-145 prostate = system: DU-145 prostate
KM12 colon = system: KM12 colon
UO-31 renal = system: UO-31 renal
HL-60(TB) leukemia = system: HL-60(TB) leukemia
CCRF-CEM leukemia = system: CCRF-CEM leukemia
A549 NSCLC = system: A549 NSCLC
HCT-15 colon = system: HCT-15 colon
RPMI-8226 leukemia = system: RPMI-8226 leukemia
T-47D breast = system: T-47D breast
HT29 colon = system: HT29 colon
MOLT-4 leukemia = system: MOLT-4 leukemia
786-0 renal = system: 786-0 renal
MCF7 breast = system: MCF7 breast
CAKI-1 renal = system: CAKI-1 renal
SK-MEL-28 melanoma = system: SK-MEL-28 melanoma
NCI-H23 lung = system: NCI-H23 lung
MDA-MB-231 breast = system: MDA-MB-231 breast
UACC-62 melanoma = system: UACC-62 melanoma

`O=C(Nc1ccc(-c2nc3ccc(NC(=O)c4ccc(Cl)cc4)cc3[nH]2)cc1)c1ccc(Cl)cc1` was tested, and the GI50 (MALME-3M melanoma) was 3.79 µM, the TGI (MALME-3M melanoma) was 11.4 µM and the GI50 (NCI-H226 lung) was 15.1 µM. It also gave a TGI (NCI-H226 lung) of 31.8 µM, a GI50 (PC-3 prostate) of 2.11 µM and a TGI (PC-3 prostate) of 5.93 µM. For the same molecule, the GI50 (SK-MEL-5 melanoma) was 3.53 µM, the TGI (SK-MEL-5 melanoma) was 14.4 µM and the GI50 (NCI-H522 lung) was 2.95 µM. The TGI (NCI-H522 lung) was 9.36 µM, the GI50 (OVCAR-4 ovarian) was 1.76 µM and the TGI (OVCAR-4 ovarian) was 3.47 µM. For the same molecule, the GI50 (TK-10 renal) was 2.39 µM, the TGI (TK-10 renal) was 5.8 µM and the GI50 (SK-OV-3 ovarian) was 11.8 µM. The TGI (SK-OV-3 ovarian) was 24.2 µM, the GI50 (SNB-75 CNS) was 1.52 µM and the TGI (SNB-75 CNS) was 7.93 µM. The GI50 (HCT-116 colon) was 2.71 µM, the TGI (HCT-116 colon) was 10.8 µM and the GI50 (NCI-H460 lung) was 1.79 µM. For the same molecule, the TGI (NCI-H460 lung) was 4.03 µM, the GI50 (SK-MEL-2 melanoma) was 12.6 µM and the TGI (SK-MEL-2 melanoma) was 25.2 µM. The GI50 (BT-549 breast) was 6.56 µM, the TGI (BT-549 breast) was 20.7 µM and the GI50 (OVCAR-5 ovarian) was 5.45 µM. The TGI (OVCAR-5 ovarian) was 19.2 µM, the GI50 (SF-539 CNS) was 0.0709 µM and the TGI (SF-539 CNS) was 6.22 µM. For the same molecule, the GI50 (M14 melanoma) was 5.28 µM, the TGI (M14 melanoma) was 18 µM and the GI50 (SN12C renal) was 12 µM. For the same molecule, the TGI (SN12C renal) was 24.3 µM, the GI50 (A498 renal) was 3.56 µM and the TGI (A498 renal) was 16.8 µM. It also gave a GI50 (MDA-MB-435) of 2.36 µM, a TGI (MDA-MB-435) of 7.14 µM and a GI50 (NCI/ADR-RES ovarian) of 17 µM. The TGI (NCI/ADR-RES ovarian) was 64.4 µM, the GI50 (HOP-92 NSCLC) was 2.68 µM and the TGI (HOP-92 NSCLC) was 11 µM. For the same molecule, the GI50 (IGROV1 ovarian) was 6.73 µM, the TGI (IGROV1 ovarian) was 19.6 µM and the GI50 (SF-268 CNS) was 5.78 µM. The TGI (SF-268 CNS) was 18.5 µM, the GI50 (LOX IMVI melanoma) was 1.94 µM and the TGI (LOX IMVI melanoma) was 11.4 µM. It also gave a GI50 (COLO 205 colon) of 2.47 µM, a TGI (COLO 205 colon) of 6.54 µM and a GI50 (SR leukemia) of 0.769 µM. For the same molecule, the TGI (SR leukemia) was 4.34 µM, the GI50 (U251 CNS) was 0.412 µM and the TGI (U251 CNS) was 3.21 µM. It also gave a GI50 (HOP-62 NSCLC) of 2.59 µM, a TGI (HOP-62 NSCLC) of 9.07 µM and a GI50 (HS 578T breast) of 0.0559 µM. For the same molecule, the TGI (HS 578T breast) was 7.9 µM, the GI50 (K-562 leukemia) was 0.487 µM and the TGI (K-562 leukemia) was 4.57 µM. The GI50 (ACHN renal) was 8.65 µM, the TGI (ACHN renal) was 21.1 µM and the GI50 (SF-295 CNS) was 0.23 µM. For the same molecule, the TGI (SF-295 CNS) was 8.77 µM, the GI50 (OVCAR-8 ovarian) was 1.73 µM and the TGI (OVCAR-8 ovarian) was 6.93 µM. For the same molecule, the GI50 (OVCAR-3 ovarian) was 3.31 µM, the TGI (OVCAR-3 ovarian) was 11.4 µM and the GI50 (SNB-19 CNS) was 13.8 µM. It also gave a TGI (SNB-19 CNS) of 28.4 µM, a GI50 (SW-620 colon) of 2.35 µM and a TGI (SW-620 colon) of 8.46 µM. The GI50 (RXF 393 renal) was 0.0186 µM, the TGI (RXF 393 renal) was 1.93 µM and the GI50 (UACC-257 melanoma) was 11.5 µM. It also gave a TGI (UACC-257 melanoma) of 24.1 µM, a GI50 (HCC-2998 colon) of 7.47 µM and a TGI (HCC-2998 colon) of 21.4 µM. The GI50 (DU-145 prostate) was 2.43 µM, the TGI (DU-145 prostate) was 7.16 µM and the GI50 (KM12 colon) was 2.16 µM. It also gave a TGI (KM12 colon) of 5.38 µM, a GI50 (UO-31 renal) of 8.19 µM and a TGI (UO-31 renal) of 20 µM. The GI50 (HL-60(TB) leukemia) was 4.12 µM, the TGI (HL-60(TB) leukemia) was 16.2 µM and the GI50 (CCRF-CEM leukemia) was 0.433 µM. The TGI (CCRF-CEM leukemia) was 4.41 µM, the GI50 (A549 NSCLC) was 2.05 µM and the TGI (A549 NSCLC) was 5.08 µM. It also gave a GI50 (HCT-15 colon) of 10.6 µM, a TGI (HCT-15 colon) of 27.4 µM and a GI50 (RPMI-8226 leukemia) of 5.77 µM. It also gave a TGI (RPMI-8226 leukemia) of 23 µM, a GI50 (T-47D breast) of 2.13 µM and a TGI (T-47D breast) of 5.01 µM. The GI50 (HT29 colon) was 2.11 µM, the TGI (HT29 colon) was 6.89 µM and the GI50 (MOLT-4 leukemia) was 0.901 µM. It also gave a TGI (MOLT-4 leukemia) of 8.31 µM, a GI50 (786-0 renal) of 0.308 µM and a TGI (786-0 renal) of 2.26 µM. It also gave a GI50 (MCF7 breast) of 1.23 µM, a TGI (MCF7 breast) of 4.91 µM and a GI50 (CAKI-1 renal) of 7.12 µM. For the same molecule, the TGI (CAKI-1 renal) was 23.7 µM, the GI50 (SK-MEL-28 melanoma) was 2.78 µM and the TGI (SK-MEL-28 melanoma) was 14.9 µM. It also gave a GI50 (NCI-H23 lung) of 4.63 µM, a TGI (NCI-H23 lung) of 16.4 µM and a GI50 (MDA-MB-231 breast) of 3.68 µM. It also gave a TGI (MDA-MB-231 breast) of 15.4 µM, a GI50 (UACC-62 melanoma) of 4.21 µM and a TGI (UACC-62 melanoma) of 16.4 µM.
